Source: patent US5798373A, “Tri-substituted phenyl derivatives useful as PDE IV inhibitors” (Celltech Therapeutics, Limited, priority 1995, dated 1998)
Where a name gives a salt, the structure may show the parent alone.

Experiments:
[1] = Rat hepatocyte metabolism (metabolic stability); format: in vitro ADME; conditions: rat hepatocytes, after 3 h, mass spectroscopy; read-out: percentage of compound remaining
Experimental: (§1) 2. Rat Hepatocyte Metabolism
(§2) The quantity of compound remaining after a fixed period of time was then determined using mass spectroscopy.
(§3) Thus in one such test the compound of Example 1 was compared with a related compound particularly described in International Patent Specification No. WO94/14742 in which the 4-fluorobenzylurea group is replaced by a hydrogen atom (i.e. (L^1)n Ar' above is a hydrogen atom). After 3 h the percentage of each compound remaining was: […]

rat hepatocytes = experiment: Rat hepatocyte metabolism (metabolic stability); format: in vitro ADME; conditions: after 3 h
Experimental: as §1, §2, §3

[2] = target: T1, Recombinant Human PDE IVA (Homo sapiens, UniProt P27815); experiment: Isolated recombinant human PDE IVA enzyme inhibition; format: biochemical; conditions: 0.1 μM [^3 H]-cAMP, pH 7.5, 30° C.
T1 construct: made in house; host or cells: yeast (inducible vector)
T1 sequence (P27815 whole entry): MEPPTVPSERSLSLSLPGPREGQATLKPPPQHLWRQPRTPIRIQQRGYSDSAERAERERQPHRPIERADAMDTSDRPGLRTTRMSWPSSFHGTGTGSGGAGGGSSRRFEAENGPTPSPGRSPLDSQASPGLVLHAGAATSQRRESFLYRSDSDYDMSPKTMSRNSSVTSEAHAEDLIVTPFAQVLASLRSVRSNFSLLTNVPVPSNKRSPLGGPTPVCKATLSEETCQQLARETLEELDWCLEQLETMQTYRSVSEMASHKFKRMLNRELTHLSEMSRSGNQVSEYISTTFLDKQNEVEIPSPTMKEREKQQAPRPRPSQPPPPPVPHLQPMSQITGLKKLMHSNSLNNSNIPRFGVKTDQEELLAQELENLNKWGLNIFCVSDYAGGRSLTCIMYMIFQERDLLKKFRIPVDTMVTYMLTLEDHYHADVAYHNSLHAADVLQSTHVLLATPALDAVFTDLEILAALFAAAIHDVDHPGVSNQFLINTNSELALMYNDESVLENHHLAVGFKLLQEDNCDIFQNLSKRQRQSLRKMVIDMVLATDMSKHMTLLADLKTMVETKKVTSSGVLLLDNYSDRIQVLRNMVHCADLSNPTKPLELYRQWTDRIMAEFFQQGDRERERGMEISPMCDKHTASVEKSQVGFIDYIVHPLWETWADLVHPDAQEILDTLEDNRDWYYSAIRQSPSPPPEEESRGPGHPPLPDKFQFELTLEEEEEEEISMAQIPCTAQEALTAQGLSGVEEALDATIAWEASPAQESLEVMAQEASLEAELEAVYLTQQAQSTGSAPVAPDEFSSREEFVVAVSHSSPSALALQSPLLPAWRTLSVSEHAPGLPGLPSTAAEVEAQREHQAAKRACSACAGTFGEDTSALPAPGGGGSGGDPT
Experimental: Isolated Recombinant Human PDE IVA Enzyme
The enzymes were purified to isoenzyme homogeneity using standard chromatographic techniques.
Phosphodiesterase activity was assayed as follows. The reaction was conducted in 150 μl of standard mixture containing (final concentrations): 50 mM 2-[[tris(hydroxymethyl)methyl]amino]-1-ethanesulphonic acid (TES) --NaOH buffer (pH 7.5), 10 mM MgCl2, 0.1 μM [^3 H]-cAMP and vehicle or various concentrations of the test compounds. The reaction was initiated by addition of enzyme and conducted at 30° C. for between 5 to 30 min. The reaction was terminated by addition of 50 μl 2% trifluoroacetic acid containing [^14 C]-5'AMP for determining recovery of the product. An aliquot of the sample was then applied to a column of neutral alumina and the [^3 H]-cAMP eluted with 10 ml 0.1 TES-NaOH buffer (pH8). The [^3 H]-5'-AMP product was eluted with 2 ml 2M NaOH into a scintillation vial containing 10 ml of scintillation cocktail. Recovery of [^3 H]-5'AMP was determined using the [^14 C]-5'AMP and all assays were conducted in the linear range of the reaction. Results were expressed as IC50 values.

remaining at 3 h [1] [%] | percentage of compound remaining (rat hepatocytes; mass spectroscopy, listed as compound of the invention, 180 min) | extent of metabolism (in words) (rat hepatocytes) | SMILES | IC50 [2] [nM]
> 80 | over 80% | – | COc1ccc([C@H](Cc2ccncc2)c2ccc(NC(=O)NCc3ccc(F)cc3)cc2)cc1OC1CCCC1 [Example 1, (R)-N-[4-{1-(3-cyclopentyloxy-4-methoxyphenyl)-2-(4-pyridyl)ethyl}-phenyl]-N'-(4-fluorobenzyl) urea] | 23
– | – | – | COc1ccc([C@H](Cc2ccncc2)c2ccc(NS(=O)(=O)Cc3ccccc3)cc2)cc1OC1CCCC1 [Example 2, (R)-4-{2-(3-cyclopentyloxy-4-methoxyphenyl)-2-[4-(benzylsulphonylamino)phenyl]ethyl}pyridine hydrochloride] | 7.5
6 | – | extensively metabolised | COc1ccc([C@H](Cc2ccncc2)c2ccccc2)cc1OC1CCCC1 [WO94/14732 comparison compound, reference compound] | –
